Source: US11993599B2, “Therapeutic compounds” (Genentech, Inc., priority 2021, dated 2024)

Assays:
BRM = BRM (Homo sapiens, UniProt P51531); assay: Immunofluorescence assay for BRM degradation in SW1573 cells; type: cell-based; parameters: treated overnight at 4° C. with either BRM primary antibody (Cell signaling Cat #11966) or BRG primary antibody; endogenous in cells; host or cells: SW1573; details: 20 hours incubation; for DC50: immunofluorescence mean nuclear signal, read-out: BRM IF Degradation IC50; for BRM IF Degradation Sinf (%): normalized to a known degrader control
Chain of BRM (P51531 whole entry): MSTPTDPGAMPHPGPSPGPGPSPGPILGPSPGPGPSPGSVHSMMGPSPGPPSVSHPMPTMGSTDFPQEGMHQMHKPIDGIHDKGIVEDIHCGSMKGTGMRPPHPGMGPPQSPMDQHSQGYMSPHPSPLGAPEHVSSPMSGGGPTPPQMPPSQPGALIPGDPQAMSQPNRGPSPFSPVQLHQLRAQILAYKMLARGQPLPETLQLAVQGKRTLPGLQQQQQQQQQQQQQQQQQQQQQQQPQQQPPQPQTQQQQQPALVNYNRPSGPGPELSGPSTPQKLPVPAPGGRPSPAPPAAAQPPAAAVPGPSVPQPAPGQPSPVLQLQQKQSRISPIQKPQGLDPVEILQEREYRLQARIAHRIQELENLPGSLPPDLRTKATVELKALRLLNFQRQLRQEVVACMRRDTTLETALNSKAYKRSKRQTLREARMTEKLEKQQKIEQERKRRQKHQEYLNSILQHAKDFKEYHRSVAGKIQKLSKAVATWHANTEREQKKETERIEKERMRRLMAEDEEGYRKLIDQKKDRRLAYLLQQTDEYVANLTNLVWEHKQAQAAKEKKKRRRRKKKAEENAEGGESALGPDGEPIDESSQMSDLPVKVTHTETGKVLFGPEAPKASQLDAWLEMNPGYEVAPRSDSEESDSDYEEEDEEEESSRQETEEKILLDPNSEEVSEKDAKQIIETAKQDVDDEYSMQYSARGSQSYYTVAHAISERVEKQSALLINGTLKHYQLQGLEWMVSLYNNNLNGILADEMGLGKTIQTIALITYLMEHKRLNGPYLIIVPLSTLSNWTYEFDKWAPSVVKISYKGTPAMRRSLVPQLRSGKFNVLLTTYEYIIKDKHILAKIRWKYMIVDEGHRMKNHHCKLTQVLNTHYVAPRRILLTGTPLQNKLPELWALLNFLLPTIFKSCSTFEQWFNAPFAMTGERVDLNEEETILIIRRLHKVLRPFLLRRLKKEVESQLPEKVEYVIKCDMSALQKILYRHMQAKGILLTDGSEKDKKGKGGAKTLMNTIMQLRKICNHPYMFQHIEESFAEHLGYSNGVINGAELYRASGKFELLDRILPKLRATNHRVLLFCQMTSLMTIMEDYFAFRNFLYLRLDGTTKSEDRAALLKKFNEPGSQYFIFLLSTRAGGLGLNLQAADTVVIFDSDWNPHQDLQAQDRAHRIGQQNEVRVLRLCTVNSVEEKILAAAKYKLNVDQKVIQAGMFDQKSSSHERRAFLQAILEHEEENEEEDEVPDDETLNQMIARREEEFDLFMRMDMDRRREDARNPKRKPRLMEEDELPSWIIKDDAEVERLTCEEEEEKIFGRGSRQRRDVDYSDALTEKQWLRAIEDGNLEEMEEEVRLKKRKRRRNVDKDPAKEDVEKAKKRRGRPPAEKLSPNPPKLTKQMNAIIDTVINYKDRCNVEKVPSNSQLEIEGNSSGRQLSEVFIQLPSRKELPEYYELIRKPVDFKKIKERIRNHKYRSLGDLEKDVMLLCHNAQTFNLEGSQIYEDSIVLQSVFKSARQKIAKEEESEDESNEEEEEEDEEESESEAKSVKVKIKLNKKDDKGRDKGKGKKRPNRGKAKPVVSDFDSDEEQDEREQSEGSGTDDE
Procedure: (§1) Example B-2: Immunofluorescence Assay for BRM and BRG1 Degraders
(§2) SW1573 cells were seeded at 3000 cells/well in 384 well plates. The next day, compounds were added using an Echo dispenser. After 20 hours of incubation with compound, cells were fixed with 4% formaldehyde then permeabilized with 0.2% Triton X-100 and blocked with 10% FCS. Fixed and permeabilized cells were treated overnight at 4° C. with either BRM primary antibody (Cell signaling Cat #11966) or BRG primary antibody (Abcam, ab 110641). Finally, cells were treated with fluorescently labeled secondary antibodies for 1 hr (Donkey anti-Rabbit IgG AF488, Life Technologies, A21206) and Hoechst nuclear stain (#H3569) was added for 30 minutes. Cells were washed with PBS in between each step and before imaging on an Opera Phenix microscope (Perkin Elmer). Harmony software (Perking Elmer) was used to quantify the mean nuclear signaling intensity of BRM or BRG signaling per cell in each well. Dose responses were determined from the concentration dependent response of mean nuclear signal intensity with data normalized to a known degrader control. Dose response curves were fit to a floating maximum to allow for calculation of the Dmax.
(§3) Note that, in Table 5, the “Compound Number” corresponds to that used in Table 1. In Table 5, for BRM and BRG1 IF degradation IC50 (μM): A indicates <0.010 μM, B indicates 0.010-0.10 μM, and C indicates >0.10 μM; and for BRM and BRG1 IF degradation Sinf % D indicates 0-−30%, E indicates −30%-−70%, F indicates −71%-−120% and ND indicates the value was not determined.

BRG1 = molecular target: T1, BRG1 (Homo sapiens, UniProt P51532); assay: Immunofluorescence assay for BRG1 degradation in SW1573 cells; type: cell-based; details: 20 hours incubation; for DC50: immunofluorescence mean nuclear signal, read-out: BRG1 IF Degradation IC50; for Dmax: SW1573, 20 h, normalized to a known degrader control, read-out: BRG1 IF Degradation Sinf (%)
T1 construct: either BRM primary antibody (Cell signaling Cat #11966) or BRG primary antibody (Abcam, ab 110641); endogenous in cells; host or cells: SW1573
T1 sequence (P51532 whole entry): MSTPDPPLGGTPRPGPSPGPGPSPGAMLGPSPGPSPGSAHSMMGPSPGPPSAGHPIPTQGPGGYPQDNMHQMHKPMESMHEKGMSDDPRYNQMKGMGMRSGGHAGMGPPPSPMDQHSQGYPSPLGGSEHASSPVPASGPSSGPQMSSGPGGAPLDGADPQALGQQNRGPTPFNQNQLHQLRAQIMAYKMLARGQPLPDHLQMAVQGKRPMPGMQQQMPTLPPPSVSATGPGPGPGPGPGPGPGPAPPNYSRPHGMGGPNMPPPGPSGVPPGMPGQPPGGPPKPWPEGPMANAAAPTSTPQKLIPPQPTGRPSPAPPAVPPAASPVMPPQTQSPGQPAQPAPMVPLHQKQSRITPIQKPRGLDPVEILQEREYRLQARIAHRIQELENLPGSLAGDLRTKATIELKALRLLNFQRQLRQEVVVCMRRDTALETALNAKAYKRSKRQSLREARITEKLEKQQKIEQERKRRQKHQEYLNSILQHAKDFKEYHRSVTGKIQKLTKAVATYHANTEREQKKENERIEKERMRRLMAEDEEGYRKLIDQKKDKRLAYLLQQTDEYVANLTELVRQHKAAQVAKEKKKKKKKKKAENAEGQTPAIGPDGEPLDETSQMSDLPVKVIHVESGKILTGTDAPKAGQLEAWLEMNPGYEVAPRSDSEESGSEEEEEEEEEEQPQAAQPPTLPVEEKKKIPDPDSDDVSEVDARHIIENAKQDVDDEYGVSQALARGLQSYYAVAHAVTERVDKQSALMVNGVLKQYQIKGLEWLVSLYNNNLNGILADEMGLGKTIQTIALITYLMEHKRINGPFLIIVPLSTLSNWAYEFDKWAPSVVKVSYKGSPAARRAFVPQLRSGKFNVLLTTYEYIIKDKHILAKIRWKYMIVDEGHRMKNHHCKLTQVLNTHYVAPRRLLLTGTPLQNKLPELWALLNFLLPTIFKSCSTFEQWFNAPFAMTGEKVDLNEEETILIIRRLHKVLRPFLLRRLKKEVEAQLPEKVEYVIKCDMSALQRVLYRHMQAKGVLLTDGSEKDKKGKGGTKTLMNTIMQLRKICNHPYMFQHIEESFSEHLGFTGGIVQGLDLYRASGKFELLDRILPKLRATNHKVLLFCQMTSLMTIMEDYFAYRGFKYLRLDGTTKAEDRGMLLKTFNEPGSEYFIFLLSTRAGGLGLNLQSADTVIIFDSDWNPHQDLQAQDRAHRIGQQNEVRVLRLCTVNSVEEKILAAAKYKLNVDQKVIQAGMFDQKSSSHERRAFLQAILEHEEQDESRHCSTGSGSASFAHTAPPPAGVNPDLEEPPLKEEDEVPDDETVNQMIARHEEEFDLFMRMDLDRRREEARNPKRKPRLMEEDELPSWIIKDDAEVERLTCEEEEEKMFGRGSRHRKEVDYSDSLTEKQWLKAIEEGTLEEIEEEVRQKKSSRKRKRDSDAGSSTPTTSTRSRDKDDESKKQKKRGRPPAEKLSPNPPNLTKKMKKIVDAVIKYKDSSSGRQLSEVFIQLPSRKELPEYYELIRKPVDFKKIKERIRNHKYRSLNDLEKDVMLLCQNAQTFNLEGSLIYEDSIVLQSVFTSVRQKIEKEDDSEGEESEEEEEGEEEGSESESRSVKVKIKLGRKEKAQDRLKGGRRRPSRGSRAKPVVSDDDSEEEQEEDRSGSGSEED
Procedure: as §1, §2, §3

SMILES | DC50 (BRM) | BRM IF Degradation Sinf (%) (BRM) | DC50 (BRG1) | Dmax (BRG1)
CN1CCCN(CC#Cc2cc(N3C4CCC3CN(c3cc(-c5ccccc5O)nnc3N)C4)ccn2)CC1 [Compound 47, 2-[6-amino-5-[8-[2-[3-(4-methyl-1,4-diazepan-1-yl)prop-1-ynyl]-4-pyridyl]-3,8-diazabicyclo[3.2.1]octan-3-yl]pyridazin-3-yl]phenol] | > 100 nM | E (E indicates −30%-−70%) | > 100 nM | 0 to 30%
CC[C@@H]1COCCN1CC#Cc1cc(N2C3CCC2CN(c2cc(-c4ccccc4O)nnc2N)C3)ccn1 [Compound 48, 2-[6-amino-5-[8-[2-[3-[(3R)-3-ethylmorpholin-4-yl]prop-1-ynyl]-4-pyridyl]-3,8-diazabicyclo[3.2.1]octan-3-yl]pyridazin-3-yl]phenol] | 10 to 100 nM | E (E indicates −30%-−70%) | 10 to 100 nM | 0 to 30%
Nc1nnc(-c2ccccc2O)cc1N1CC2CCC(C1)N2c1ccnc(C#CCN2CC3(CCOCC3)C2)c1 [Compound 49, 2-[6-amino-5-[8-[2-[3-(7-oxa-2-azaspiro[3.5]nonan-2-yl)prop-1-ynyl]-4-pyridyl]-3,8-diazabicyclo[3.2.1]octan-3-yl]pyridazin-3-yl]phenol] | < 10 nM | F (F indicates −71%-−120%) | < 10 nM | 30 to 70%
Nc1nnc(-c2ccccc2O)cc1N1CC2CCC(C1)N2c1ccnc(C#CCN2CCCC(O)C2)c1 (stereo not drawn) [Compound 50, 1-[3-[4-[3-[3-amino-6-(2-hydroxyphenyl)pyridazin-4-yl]-3,8-diazabicyclo[3.2.1]octan-8-yl]-2-pyridyl]prop-2-ynyl]piperidin-3-ol] | 10 to 100 nM | E (E indicates −30%-−70%) | > 100 nM | 30 to 70%
CN(CC#Cc1cc(N2C3CCC2CN(c2cc(-c4ccccc4O)nnc2N)C3)ccn1)C1CCS(=O)(=O)C1 (stereo not drawn) [Compound 51, 2-[6-amino-5-[8-[2-[3-[(1,1-dioxothiolan-3-yl)-methyl-amino]prop-1-ynyl]-4-pyridyl]-3,8-diazabicyclo[3.2.1]octan-3-yl]pyridazin-3-yl]phenol] | > 100 nM | E (E indicates −30%-−70%) | > 100 nM | 30 to 70%
Nc1nnc(-c2ccccc2O)cc1N1CC2CCC(C1)N2c1ccnc(C#CCN2CCC(O)C2)c1 (stereo not drawn) [Compound 52, 1-[3-[4-[3-[3-amino-6-(2-hydroxyphenyl)pyridazin-4-yl]-3,8-diazabicyclo[3.2.1]octan-8-yl]-2-pyridyl]prop-2-ynyl]pyrrolidin-3-ol] | 10 to 100 nM | E (E indicates −30%-−70%) | 10 to 100 nM | 30 to 70%
Nc1nnc(-c2ccccc2O)cc1N1CC2CCC(C1)N2c1ccnc(C#CCN2CCn3ccnc3C2)c1 [Compound 53, 2-[6-amino-5-[8-[2-[3-(6,8-dihydro-5H-imidazo[1,2-a]pyrazin-7-yl)prop-1-ynyl]-4-pyridyl]-3,8-diazabicyclo[3.2.1]octan-3-yl]pyridazin-3-yl]phenol] | 10 to 100 nM | E (E indicates −30%-−70%) | 10 to 100 nM | 0 to 30%
Nc1nnc(-c2ccccc2O)cc1N1CC2CCC(C1)N2c1ccnc(C#CCN2CC3CNCC3C2)c1 (stereo not drawn) [Compound 54, 2-[5-[8-[2-[3-(2,3,3a,4,6,6a-hexahydro-1H-pyrrolo[3,4-c]pyrrol-5-yl)prop-1-ynyl]-4-pyridyl]-3,8-diazabicyclo[3.2.1]octan-3-yl]-6-amino-pyridazin-3-yl]phenol] | > 100 nM | F (F indicates −71%-−120%) | > 100 nM | 30 to 70%
Nc1nnc(-c2ccccc2O)cc1N1CC2CCC(C1)N2c1ccnc(C#CCN2CCCCC2CO)c1 (stereo not drawn) [Compound 55, 2-[6-amino-5-[8-[2-[3-[2-(hydroxymethyl)-1-piperidyl]prop-1-ynyl]-4-pyridyl]-3,8-diazabicyclo[3.2.1]octan-3-yl]pyridazin-3-yl]phenol] | 10 to 100 nM | E (E indicates −30%-−70%) | 10 to 100 nM | 30 to 70%
